Converted amounts (≈) assume the structure as drawn.
How the values were obtained:
[1] = system: Klebsiella pneumoniae CCM 4415; test: Broth microdilution MIC and MBC; format: cell-based; conditions: for MIC: CCM4415, K. pneumoniae CCM 4415; for MBC: CCM4415, K. pneumoniae CCM 4415, inactivating 99.9% of inoculum
Experimental: (§1) The antimicrobial activity of caffeic acid and its semi-synthetic derivates was tested against Gram-positive (Staphylococcus aureus CCM 4750, methicillin-resistant; Staphylococcus aureus CCM 4223, methicillin-susceptible; Enterococcus faecalis CCM 4224) and Gram-negative bacteria (Pseudomonas aeruginosa CCM 3955; Escherichia coli CCM 3954; Klebsiella pneumoniae CCM 4415; Proteus mirabilis CCM 7188), and one strain of a yeast Candida albicans (CCM 8267). Microbial strains were purchased from the Czech Collection of Microorganisms, Brno, Czech Republic, and preserved in aliquots in cryoprotective media at −20 °C until the testing. Revival of cryoprotected bacteria took place by overnight cultivation on blood agar and an additional passage on blood agar. Minimal inhibitory concentrations (MIC) against bacteria were detected by broth microdilution test in sterile 96-well U-shaped microtiter plates (Roll s.a.s., Piove di Sacco, Italy) according to the EUCAST recommendations. The test was performed in 100 μL volumes in microtiter plate wells with a final bacterial concentration of 5 × 10^5 CFU·mL^−1. Antifungal activity testing was performed according to the EUCAST-recommended method for the determination of broth dilution minimum inhibitory concentrations of antifungal agents for yeasts, with some modifications. The final yeast concentration in the test wells was 10^4 CFU·mL^−1. The minimal bactericidal/fungicidal concentrations (MBC/MFC) were detected by point-inoculation of 5 μL aliquots from test wells without visible growth on solid agar media free of antimicrobials. Mueller–Hinton broth and agar were used for bacteria, and Sabouraud dextrose broth and agar for fungi (OXOID, Basingstoke, Hampshire, UK). The tested agents were dissolved in 50% ethanol, and serial dilutions were prepared in the test medium to obtain final concentrations ranging from 5000 to 5 μg·mL^−1, which corresponds to 27,753—54 μM for caffeic acid, 7251—14 μM for CAP 6, 6967—14 μM for CAP 8, 6705—13 μM for CAP 10 and 6462—13 μM for CAP 12. Wells with media free of bacteria served as sterility control and wells with bacteria without antimicrobial agents were used as growth control. The MIC was determined to be the lowest concentration of the antimicrobial agent inhibiting the growth of the tested microorganism, and the MBC/MFC was determined to be the lowest concentration, inactivating 99.9% of microbial inoculum. All tests were performed in three independent runs to exclude possible excessive values due to permissible measurement error.

[2] = system: Escherichia coli CCM 3954; test: Broth microdilution MIC and MBC; format: cell-based; conditions: for MIC: CCM3954, E. coli CCM 3954; for MBC: CCM3954, E. coli CCM 3954, inactivating 99.9% of inoculum
Experimental: as §1

[3] = system: Staphylococcus aureus (MR) CCM 4750; test: Broth microdilution MIC and MBC; format: cell-based; conditions: for MIC: CCM4750, S. aureus methicillin-resistant CCM 4750; for MBC: CCM4750, S. aureus methicillin-resistant CCM 4750, inactivating 99.9% of inoculum
Experimental: as §1

S. aureus (MS) CCM 4223 = test: Broth microdilution MIC and MBC; format: cell-based; conditions: Staphylococcus aureus, CCM4223, S. aureus methicillin-susceptible CCM 4223; for MBC: inactivating 99.9% of inoculum
Experimental: as §1

[4] = system: Pseudomonas aeruginosa CCM 3955; test: Broth microdilution MIC and MBC; format: cell-based; conditions: for MIC / MBC: Pseudomonas aeruginosa, CCM3955, P. aeruginosa CCM 3955; for MBC: inactivating 99.9% of inoculum
Experimental: as §1

[5] = system: Enterococcus faecalis CCM 4224; test: Broth microdilution MIC and MBC; format: cell-based; conditions: for MIC: CCM4224, E. faecalis CCM 4224; for MBC: CCM4224, E. faecalis CCM 4224, inactivating 99.9% of inoculum
Experimental: as §1

[6] = system: Proteus mirabilis CCM 7188; test: Broth microdilution MIC and MBC; format: cell-based; conditions: for MIC: CCM7188, P. mirabilis CCM 7188; for MBC: CCM7188, P. mirabilis CCM 7188, inactivating 99.9% of inoculum
Experimental: as §1

[7] = system: Candida albicans CCM 8267; test: Broth dilution MIC and MFC for yeasts; format: cell-based; conditions: for MIC: CCM8267, C. albicans CCM 8267; for MFC: CCM8267, C. albicans CCM 8267, inactivating 99.9% of inoculum
Experimental: as §1

[8] = Equilibrium surface tension measurements (Wilhelmy plate); format: physicochemical; conditions: 25 °C; for cmc (critical micelle concentration) / γcmc (surface tension at the cmc): aqueous solution; for Acmc (surface area per head group at surface saturation): water/air interface, from Gibbs adsorption isotherm
Experimental: The physicochemical properties of the compounds were investigated by the measurements of surface tension of their aqueous solutions. The critical micelle concentration (cmc), the surface tension value at the cmc (γcmc), and the surface area per head group at the surface saturation (Acmc) were determined.
The equilibrium surface tension measurements were carried out according to the procedure described previously. The Wilhelmy plate technique was used for the determination of the solvent surface tension values. Measurements were performed with a Krüss 100 MK2 tensiometer. All samples were prepared by dissolving amphiphilic compounds in deionized water. The stock solutions were prepared in a volumetric flask. The measurements were performed at 25 ± 0.1 °C. The measurements of equilibrium surface tension were taken repeatedly. The values were recorded every 360 s. The measurement was stopped if the difference between the values of two successive measurements was less than 5 × 10^−5 N·m^−1. The breakpoint of the linear parts of the surface tension vs. log c curve was used for the determination of the critical micelle concentration (cmc) and surface tension at the cmc (γcmc). The adsorbed amount of surfactant Γcmc was also determined from surface tension data. The value was calculated using the Gibbs adsorption isotherm: Γcmc=dγ/dlogcT/2.303iRT where γ represents the surface tension (mN/m), c is the concentration of surfactant, i represents the prefactor (CAP have i = 2), R is the gas constant, and T represents the absolute temperature. The slope below the cmc in the surface tension vs. log c plots was used for the determination of the surface excess. The values of area per head group at the water/air interface (Acmc) were obtained from the following equation: Acmc=10^18/NAΓcmc where NA represents the Avogadros constant.

| SMILES | MIC [1] | MBC [1] | MIC [2] | MBC [2] | MIC [3] | MBC [3] | MIC (S. aureus (MS) CCM 4223) | MBC (S. aureus (MS) CCM 4223) | MIC/MBC ([4]; P. aeruginosa, corresponding to the μM value) | MIC [4] | MBC [4] | MIC [5] | MBC [5] | MIC [6] | MBC [6] | MIC [7] | MFC [7] | cmc (critical micelle concentration) [8] | γcmc (surface tension at the cmc) [8] | Acmc (surface area per head group at surface saturation) [8] |
| --- | --- | --- | --- | --- | --- | --- | --- | --- | --- | --- | --- | --- | --- | --- | --- | --- | --- | --- | --- | --- |
| O=C(O)C=Cc1ccc(O)c(O)c1 [CA, 3-(3,4-dihydroxyphenyl)-2-propenoic acid, reference compound] | 6940 µM (≈ 1250 µg/mL) | 6940 µM (≈ 1250 µg/mL) | 6940 µM (≈ 1250 µg/mL) | 13900 µM (≈ 2500 µg/mL) | 6940 µM (≈ 1250 µg/mL) | 13900 µM (≈ 2500 µg/mL) | 6940 µM (≈ 1250 µg/mL) | 13900 µM (≈ 2500 µg/mL) | 625 µg/mL (≈ 3.47 mM) | 3470 µM (≈ 625 µg/mL) | 3470 µM (≈ 625 µg/mL) | 13900 µM (≈ 2500 µg/mL) | 27800 µM (≈ 5000 µg/mL) | 6940 µM (≈ 1250 µg/mL) | 6940 µM (≈ 1250 µg/mL) | 13900 µM (≈ 2500 µg/mL) | 13900 µM (≈ 2500 µg/mL) | – | – | – |
| CC(=O)Oc1ccc(/C=C/C(=O)OCCCCCCCCCCCC[P+](c2ccccc2)(c2ccccc2)c2ccccc2)cc1OC(C)=O [CAP 12, P,P,P-triphenyl-12-{(2E)-3-[3,4-(diacetyloxy)penyl]prop-2-enoyloxy}dodecane-1-phosphanium bromide] | 404 µM | 404 µM | 808 µM | 808 µM | 25 µM | 25 µM | 50 µM | 50 µM | – | 404 µM | 808 µM | 25 µM | 25 µM | 404 µM | 404 µM | 25 µM | 25 µM | 1.0 × 10^−3 mol·dm^−3 | 39.4 mN·m^−1 | 1.33 nm^2 |
| CC(=O)Oc1ccc(/C=C/C(=O)OCCCCCCCCCC[P+](c2ccccc2)(c2ccccc2)c2ccccc2)cc1OC(C)=O [CAP 10, P,P,P-triphenyl-10-{(2E)-3-[3,4-(diacetyloxy)penyl]prop-2-enoyloxy}decane-1-phosphanium bromide] | 105 µM | 105 µM | 419 µM | 419 µM | 13 µM | 26 µM | 13 µM | 13 µM | – | 838 µM | 676 µM | 26 µM | 26 µM | 210 µM | 419 µM | 13 µM | 13 µM | 2.2 × 10^−3 mol·dm^−3 | 37.1 mN·m^−1 | 1.02 nm^2 |
| CC(=O)Oc1ccc(/C=C/C(=O)OCCCCCC[P+](c2ccccc2)(c2ccccc2)c2ccccc2)cc1OC(C)=O [CAP 6, P,P,P-triphenyl-6-{(2E)-3-[3,4-(diacetyloxy)penyl]prop-2-enoyloxy}hexane-1-phosphanium bromide] | 28 µM | 28 µM | 227 µM | 227 µM | 14 µM | 14 µM | 14 µM | 14 µM | – | 453 µM | 453 µM | 57 µM | 57 µM | 453 µM | 453 µM | 57 µM | 57 µM | 7.5 × 10^−3 mol·dm^−3 | 36.4 mN·m^−1 | 0.84 nm^2 |
| CC(=O)Oc1ccc(/C=C/C(=O)OCCCCCCCC[P+](c2ccccc2)(c2ccccc2)c2ccccc2)cc1OC(C)=O [CAP 8, P,P,P-triphenyl-8-{(2E)-3-[3,4-(diacetyloxy)penyl]prop-2-enoyloxy}okctane-1-phosphanium bromide] | 27 µM | 27 µM | 435 µM | 435 µM | 27 µM | 27 µM | 14 µM | 14 µM | – | 871 µM | 871 µM | 27 µM | 27 µM | 218 µM | 435 µM | 27 µM | 27 µM | 5.2 × 10^−3 mol·dm^−3 | 37.7 mN·m^−1 | 0.82 nm^2 |

From PMC10817097, “Caffeic Acid Phosphanium Derivatives: Potential Selective Antitumor, Antimicrobial and Antiprotozoal Agents” (International Journal of Molecular Sciences, 2024)
